The values that follow come from US12421210B2, “Fused bicyclic heterocycles as therapeutic agents” (NEW YORK UNIVERSITY, priority 2018, dated 2025).

In the experiment the target is human NAMPT enzyme (His-hNAMPT) (Homo sapiens (Human), UniProt P43490). The experiment in a line: NAMPT enzymatic inhibition assay (fluorescence, NADH product). The experiment is classed as biochemical.
Where [1] appears, read: [HDB], read-out: NAMPT IC50 (μM) [HDB].
[2] abbreviates: [BPS], read-out: NAMPT IC50 (μM) [BPS].

Read-outs that look alike come from different tables or passages of the source. Where only a bound is given, the exact number is not on record here.

Sequence of human NAMPT enzyme (His-hNAMPT) (P43490 whole entry): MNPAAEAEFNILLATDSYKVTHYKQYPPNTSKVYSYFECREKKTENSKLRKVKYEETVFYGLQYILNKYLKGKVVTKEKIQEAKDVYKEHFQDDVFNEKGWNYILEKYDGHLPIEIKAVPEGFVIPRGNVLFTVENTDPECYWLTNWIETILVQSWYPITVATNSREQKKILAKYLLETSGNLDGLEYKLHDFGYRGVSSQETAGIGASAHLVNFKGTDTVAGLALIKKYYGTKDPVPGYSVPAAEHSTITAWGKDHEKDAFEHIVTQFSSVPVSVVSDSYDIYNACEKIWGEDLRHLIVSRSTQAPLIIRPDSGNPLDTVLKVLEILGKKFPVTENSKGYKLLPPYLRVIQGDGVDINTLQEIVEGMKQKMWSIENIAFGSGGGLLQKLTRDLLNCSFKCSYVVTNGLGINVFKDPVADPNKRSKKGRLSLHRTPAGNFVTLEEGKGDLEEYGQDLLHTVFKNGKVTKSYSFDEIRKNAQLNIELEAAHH

`O=C(/C=C/c1cccnc1)NCC[C@@H]1[C@H]2CN(c3ncc(C(F)(F)F)cn3)C[C@@H]12` [Example 162, (E)-3-(pyridin-3-yl)-N-(2-((1R,5S,6s)-3-(5-(trifluoromethyl)pyrimidin-2-yl)-3-azabicyclo[3.1.0]hexan-6-yl)ethyl)acrylamide]: the IC50 – broadly, the midpoint of a concentration-inhibition curve – under setting [1] was in the range of 0.01 to 0.49 µM.

On to `O=C(/C=C/c1cccnc1)NCC[C@@H]1[C@H]2CN(c3ncc(F)cn3)C[C@@H]12` [Example 163, (E)-N-(2-((1R,5S,6s)-3-(5-fluoropyrimidin-2-yl)-3-azabicyclo[3.1.0]hexan-6-yl)ethyl)-3-(pyridin-3-yl)acrylamide], for which the IC50 under setting [1] lay within 0.01 to 0.49 µM. Same read-out and setting: for `O=C(/C=C/c1cccnc1)NCC[C@@H]1[C@H]2CN(c3ncc(Cl)cn3)C[C@@H]12` [Example 164, (E)-N-(2-((1R,5S,6s)-3-(5-chloropyrimidin-2-yl)-3-azabicyclo[3.1.0]hexan-6-yl)ethyl)-3-(pyridin-3-yl)acrylamide] the value was 0.01 to 0.49 µM. Still for that read-out and setting: for `Nc1ccc(/C=C/C(=O)NCC[C@@H]2[C@H]3CN(c4ncc5ccccc5n4)C[C@@H]23)cn1` [Example 165, (E)-3-(6-aminopyridin-3-yl)-N-(2-((1R,5S,6s)-3-(quinazolin-2-yl)-3-azabicyclo[3.1.0]hexan-6-yl)ethyl)acrylamide] the value was 0.01 to 0.49 µM. Same read-out and setting: for `O=C(/C=C/c1cccnc1)NCC[C@@H]1[C@H]2CN(c3ncc4c(n3)CCOC4)C[C@@H]12` [Example 166, (E)-N-(2-((1R,5S,6s)-3-(7,8-dihydro-5H-pyrano[4,3-d]pyrimidin-2-yl)-3-azabicyclo[3.1.0]hexan-6-yl)ethyl)-3-(pyridin-3-yl)acrylamide] the value was 0.01 to 0.49 µM; for `O=C(/C=C/c1cccnc1)NCC[C@@H]1[C@H]2CN(c3ncc4cc(F)ccc4n3)C[C@@H]12` [Example 167, (E)-N-(2-((1R,5S,6s)-3-(6-fluoroquinazolin-2-yl)-3-azabicyclo[3.1.0]hexan-6-yl)ethyl)-3-(pyridin-3-yl)acrylamide], 0.01 to 0.49 µM. Take `O=C(/C=C/c1cccnc1)NCC[C@@H]1[C@H]2CN(c3ccncn3)C[C@@H]12` [Example 168, (E)-3-(pyridin-3-yl)-N-(2-((1R,5S,6s)-3-(pyrimidin-4-yl)-3-azabicyclo[3.1.0]hexan-6-yl)ethyl)acrylamide]: the half-inhibitory concentration (IC50) under setting [1] was 0.01 to 0.49 µM.

As for `O=C(/C=C/c1cccnc1)NCC[C@@H]1[C@H]2CN(c3nccc(C(F)(F)F)n3)C[C@@H]12` [Example 169, (E)-3-(pyridin-3-yl)-N-(2-((1R,5S,6s)-3-(4-(trifluoromethyl)pyrimidin-2-yl)-3-azabicyclo[3.1.0]hexan-6-yl)ethyl)acrylamide], the IC50 under setting [1] was under 0.01 µM.

Consider `O=C(/C=C/c1cccnc1)NCC[C@@H]1[C@H]2CN(c3ncncn3)C[C@@H]12` [Example 170, (E)-N-(2-((1R,5S,6s)-3-(1,3,5-triazin-2-yl)-3-azabicyclo[3.1.0]hexan-6-yl)ethyl)-3-(pyridin-3-yl)acrylamide], for which the concentration for half-maximal inhibition (IC50) under setting [1] lay in the range of 0.01 to 0.49 µM. Still for that read-out and setting: to `NC(=O)c1ccnc(N2C[C@@H]3[C@@H](CCNC(=O)/C=C/c4cccnc4)[C@@H]3C2)n1` [Example 171, 2-((1R,5S,6s)-6-(2-((E)-3-(pyridin-3-yl)acrylamido)ethyl)-3-azabicyclo[3.1.0]hexan-3-yl)pyrimidine-4-carboxamide] belongs under 0.01 µM; to `O=C(/C=C/c1cccnc1)NCC[C@@H]1[C@H]2CN(c3nc(Cl)ncc3F)C[C@@H]12` [Example 172, (E)-N-(2-((1R,5S,6s)-3-(2-chloro-5-fluoropyrimidin-4-yl)-3-azabicyclo[3.1.0]hexan-6-yl)ethyl)-3-(pyridin-3-yl)acrylamide], under 0.01 µM.

In the case of `COc1nc(N2C[C@@H]3[C@@H](CCNC(=O)/C=C/c4cccnc4)[C@@H]3C2)ncc1F` [Example 173, (E)-N-(2-((1R,5S,6s)-3-(5-fluoro-4-methoxypyrimidin-2-yl)-3-azabicyclo[3.1.0]hexan-6-yl)ethyl)-3-(pyridin-3-yl)acrylamide], the 50% inhibitory concentration (IC50) under setting [1] was in the range of 0.01 to 0.49 µM. The same measure, in the same setting: to `NC(=O)c1cnc(N2C[C@@H]3[C@@H](CCNC(=O)/C=C/c4cccnc4)[C@@H]3C2)nc1` [Example 174, 2-((1R,5S,6s)-6-(2-((E)-3-(pyridin-3-yl)acrylamido)ethyl)-3-azabicyclo[3.1.0]hexan-3-yl)pyrimidine-5-carboxamide] belongs under 0.01 µM.

With `O=C(/C=C/c1cccnc1)NCC[C@@H]1[C@H]2CN(c3nc(C(F)(F)F)cs3)C[C@@H]12` [Example 175, (E)-3-(pyridin-3-yl)-N-(2-((1R,5S,6s)-3-(4-(trifluoromethyl)thiazol-2-yl)-3-azabicyclo[3.1.0]hexan-6-yl)ethyl)acrylamide], the IC50 under setting [1] was 0.01 to 0.49 µM.

As for `O=C(/C=C/c1cccnc1)NCC[C@@H]1[C@H]2CN(c3ccccn3)C[C@@H]12` [Example 176, (E)-N-(2-((1R,5S,6s)-3-(pyridin-2-yl)-3-azabicyclo[3.1.0]hexan-6-yl)ethyl)-3-(pyridin-3-yl)acrylamide], under setting [1], the IC50 lay in the range of 0.01 to 0.49 µM. The same measure, in the same setting: for `O=C(/C=C/c1cccnc1)NCC[C@@H]1[C@H]2CN(c3cnccn3)C[C@@H]12` [Example 177, (E)-N-(2-((1R,5S,6s)-3-(pyrazin-2-yl)-3-azabicyclo[3.1.0]hexan-6-yl)ethyl)-3-(pyridin-3-yl)acrylamide] the value was 0.01 to 0.49 µM.

As to `Nc1ccc(/C=C/C(=O)NCC[C@@H]2[C@H]3CN(C(=O)c4cccc(C(=O)O)c4)C[C@@H]23)cn1` [Example 178, 3-((1R,5S,6s)-6-(2-((E)-3-(6-aminopyridin-3-yl)acrylamido)ethyl)-3-azabicyclo[3.1.0]hexane-3-carbonyl)benzoic acid], the IC50 under setting [2] is 0.01 to 0.49 µM. For the compound `Nc1ccc(/C=C/C(=O)NCC[C@@H]2[C@H]3CN(C(=O)c4ccc(C(=O)O)cc4)C[C@@H]23)cn1` [Example 179, 4-((1R,5S,6s)-6-(2-((E)-3-(6-aminopyridin-3-yl)acrylamido)ethyl)-3-azabicyclo[3.1.0]hexane-3-carbonyl)benzoic acid], the IC50 runs as follows: under setting [2], 1 to 29 µM; under setting [1], 0.5 to 0.99 µM. For `O=C(O)c1cccc(C(=O)N2C[C@@H]3[C@@H](CCNC(=O)c4cc5ccncc5o4)[C@@H]3C2)c1` [Example 180, 3-((1R,5S,6s)-6-(2-(furo[2,3-c]pyridine-2-carboxamido)ethyl)-3-azabicyclo[3.1.0]hexane-3-carbonyl)benzoic acid], under setting [2], the concentration for half-maximal inhibition (IC50) is 0.5 to 0.99 µM.

As for `O=C(O)c1cccc(C(=O)N2C[C@@H]3[C@@H](CCNC(=O)c4ccc5nccn5c4)[C@@H]3C2)c1` [Example 181, 3-((1R,5S,6s)-6-(2-(imidazo[1,2-a]pyridine-6-carboxamido)ethyl)-3-azabicyclo[3.1.0]hexane-3-carbonyl)benzoic acid], the IC50 under setting [2] was 1 to 29 µM.

For the compound `O=C(O)c1cccc(C(=O)N2C[C@@H]3[C@@H](CCNC(=O)c4cnc5nccn5c4)[C@@H]3C2)c1` [Example 182, 3-((1R,5S,6s)-6-(2-(imidazo[1,2-a]pyrimidine-6-carboxamido)ethyl)-3-azabicyclo[3.1.0]hexane-3-carbonyl)benzoic acid], the concentration for half-maximal inhibition (IC50) under setting [1] lay in the range of 0.01 to 0.49 µM. `NC(=O)c1cccc(N2C[C@@H]3[C@@H](CCNC(=O)/C=C/c4cccnc4)[C@@H]3C2)c1` [Example 183, 3-((1R,5S,6s)-6-(2-((E)-3-(pyridin-3-yl)acrylamido)ethyl)-3-azabicyclo[3.1.0]hexan-3-yl)benzamide]: under setting [1], the IC50 was 0.01 to 0.49 µM.
